Measured values from the NIST ThermoML archive (doi:10.1016/j.fluid.2008.04.016).
“And” between values parts separate entries of the source, which are not always exact repeats. Identical values can stand only once.

Settings: Liquid

CC(C)(C)c1cc(C(C)(C)C)cc(C(C)(C)C)c1 [1,3,5-tri-tert-butylbenzene]
Transpiration method
Settings	vapor or sublimation pressure [kPa]
352.15 K	0.1311
354.45 K	0.1544
356.65 K	0.1766
358.95 K	0.2039
359.15 K	0.2029
361.35 K	0.2292
362.05 K	0.2407
363.45 K	0.2577
365.15 K	0.2888
367.45 K	0.3257
370.15 K	0.3801
372.65 K	0.4354
374.95 K	0.4944
377.35 K	0.5671
379.55 K	0.6317
382.65 K	0.7387

CC(C)(C)c1ccc(C(C)(C)C)cc1 [1,4-bis(1,1-dimethylethyl)benzene]
Transpiration method
Settings	vapor or sublimation pressure [kPa]
354.15 K	0.3792
356.45 K	0.4257
358.95 K	0.4877
361.75 K	0.5742
364.25 K	0.6537
366.45 K	0.7231
366.55 K	0.7158
369.15 K	0.8057
372.05 K	0.9399
374.15 K	1.036
376.45 K	1.171
379.75 K	1.376
381.75 K	1.507
383.25 K	1.647

Cc1cc(C(C)(C)C)cc(C(C)(C)C)c1 [3,5-di-tert-butyltoluene]
Transpiration method
Settings	vapor or sublimation pressure [kPa]
308.25 K	0.01666
310.65 K	0.01931
313.35 K	0.02366
315.45 K	0.02884
317.95 K	0.03401
320.45 K	0.04037
323.05 K	0.04906
325.55 K	0.05841
327.95 K	0.06909
330.55 K	0.08097
333.05 K	0.09656
335.55 K	0.1131
338.15 K	0.1302
340.65 K	0.1549
343.05 K	0.1773
345.55 K	0.2067
348.1 K	0.2475
350.45 K	0.2845
353.05 K	0.3277
355.65 K	0.3743
358.15 K	0.4358

Settings	vapor or sublimation pressure
379.62 K	1.318 kPa
379.86 K	1.338 kPa
380.13 K	1.358 kPa
393.09 K	2.478 kPa
393.16 K	2.483 kPa
393.19 K	2.483 kPa
393.25 K	2.488 kPa
402.75 K	3.746 kPa
402.76 K	3.746 kPa
402.77 K	3.746 kPa
410.74 K	5.173 kPa
410.81 K	5.179 kPa
410.83 K	5.184 kPa
410.85 K	5.189 kPa
428.47 K	10.05 kPa
428.48 K	10.05 kPa
439.99 K	14.94 kPa
440 K	14.94 kPa
449.13 K	20.06 kPa and 20.07 kPa
449.14 K	20.06 kPa
449.15 K	20.07 kPa
449.2 K	20.09 kPa
449.21 K	20.09 kPa
449.22 K	20.1 kPa
456.12 K	24.89 kPa
456.13 K	24.89 kPa
456.14 K	24.89 kPa
462.5 K	30.11 kPa
462.52 K	30.11 kPa
467.98 K	35.24 kPa
472.54 K	40.02 kPa
478.05 K	46.5 kPa
478.06 K	46.5 kPa
482.73 K	52.54 kPa and 52.65 kPa and 52.66 kPa
482.76 K	52.69 kPa
482.77 K	52.7 kPa
487.56 K	59.65 kPa
487.57 K	59.67 kPa
487.58 K	59.69 kPa
491.67 K	66.2 kPa and 66.19 kPa
491.68 K	66.21 kPa
495.5 K	72.78 kPa
495.53 K	72.83 kPa
498.98 K	79.21 kPa
498.99 K	79.22 kPa
503.36 K	87.92 kPa and 87.93 kPa
505.71 K	92.91 kPa
505.72 K	92.91 kPa
508.06 K	98.13 kPa
508.07 K	98.13 kPa
508.08 K	98.17 kPa
508.09 K	98.18 kPa
509.38 K	101.13 kPa and 101.14 kPa and 101.15 kPa
509.93 K	102.44 kPa
509.94 K	102.45 kPa
510.55 K	103.88 kPa
510.56 K	103.87 kPa and 103.88 kPa

CC(c1ccccc1)C(C)(C)C (stereo unspecified) [(1,2,2-trimethylpropyl)benzene]
Transpiration method
Settings	vapor or sublimation pressure [kPa]
296 K	0.04082
298.5 K	0.04885
301 K	0.05923
303.5 K	0.07018
305.9 K	0.08326
308.4 K	0.09874
310.9 K	0.1175
313.4 K	0.1378
315.9 K	0.1579
318.3 K	0.185
320.8 K	0.2193
323.3 K	0.2551
325.8 K	0.292
